The record followed here is PubChem BioAssay AID192 (DTP/NCI, 2004).

The experiment deals with BDF1 mice, B16 melanoma ip, median survival T/C. Description: NCI In Vivo Anticancer Drug Screen. Data for tumor model B16 Melanoma (intraperitoneal) in B6D2F1 (BDF1) mice. The following applies: endpoint: median survival time, higher = longer survival. Put shortly:
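Values are ratios of treated (T) to vehicle-control (C) measurements of survival or tumor size in tumor-bearing mice.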

Where [1] appears, read: dose: 6.25 mg/kg/injection, schedule: Q01DX009 (ip), vehicle: Klucel (hydroxypropylcellulose) (HPC).
Setting [2] is: dose: 12.5 mg/kg/injection, schedule: Q01DX009 (ip), vehicle: Klucel (hydroxypropylcellulose) (HPC).
Where [3] appears, read: dose: 25.0 mg/kg/injection, schedule: Q01DX009 (ip), vehicle: Klucel (hydroxypropylcellulose) (HPC).
[4] abbreviates: dose: 3.12 mg/kg/injection, schedule: Q01DX009 (ip), vehicle: Klucel (hydroxypropylcellulose) (HPC).
The mark [5] stands for this setting: dose: 50.0 mg/kg/injection, schedule: Q01DX009 (ip), vehicle: Klucel (hydroxypropylcellulose) (HPC).
Setting [6] is: dose: 50.0 mg/kg/injection, schedule: Q01DX009 (ip), vehicle: saline.
Where [7] appears, read: dose: 100.0 mg/kg/injection, schedule: Q01DX009 (ip), vehicle: saline.
Setting [8] is: dose: 200.0 mg/kg/injection, schedule: Q01DX009 (ip), vehicle: saline.
Where [9] appears, read: dose: 100.0 mg/kg/injection, schedule: Q01DX009 (ip), vehicle: saline with Tween-80.
Setting [10] is: dose: 200.0 mg/kg/injection, schedule: Q01DX009 (ip), vehicle: saline with Tween-80.
[11] abbreviates: dose: 400.0 mg/kg/injection, schedule: Q01DX009 (ip), vehicle: saline with Tween-80.
Setting [12] is: dose: 12.5 mg/kg/injection, schedule: Q01DX009 (ip), vehicle: saline.
Where [13] appears, read: dose: 25.0 mg/kg/injection, schedule: Q01DX009 (ip), vehicle: saline.
The mark [14] stands for this setting: dose: 12.5 mg/kg/injection, schedule: Q01DX009 (ip), vehicle: saline with Tween-80.
[15] abbreviates: dose: 25.0 mg/kg/injection, schedule: Q01DX009 (ip), vehicle: saline with Tween-80.
The mark [16] stands for this setting: dose: 50.0 mg/kg/injection, schedule: Q01DX009 (ip), vehicle: saline with Tween-80.

Values joined by “and” are separate entries in the source; they are usually repeats but may differ in a detail not shown here. Identical values can stand only once. Inconclusive results and toxic doses are left out.

Consider `CC(Cc1ccccc1)NC(C#N)c1ccccc1` (stereo unspecified), for which the T/C under setting [1] is 100 % of control, the T/C under setting [2] was 87 % of control and the T/C under setting [3] is 90 % of control.
For `COc1ccc2c(c1)CN(S(=O)(=O)c1ccc(C)cc1)C=CC2=O`, the T/C is 108 % of control (dose: 100.0 mg/kg/injection, schedule: Q04DX003 (ip), vehicle: Klucel (hydroxypropylcellulose) (HPC)); 103 % of control (dose: 200.0 mg/kg/injection, schedule: Q04DX003 (ip), vehicle: Klucel (hydroxypropylcellulose) (HPC)); 97 % of control (dose: 400.0 mg/kg/injection, schedule: Q04DX003 (ip), vehicle: Klucel (hydroxypropylcellulose) (HPC)).
Consider `Cc1ccccc1CN1CCN(CCOC(c2ccccc2)c2ccccc2Cl)CC1` (stereo unspecified), for which the T/C is 93 % of control and 94 % of control under setting [4]; 93 % of control under setting [1]; 91 % of control and 100 % of control under setting [2]; 86 % of control and 89 % of control under setting [3]; 86 % of control under setting [5].
As for `COC(=O)C(CCCN)NC(=O)c1ccccc1` (stereo unspecified), the T/C under setting [6] is 95 % of control; the T/C under setting [7] was 102 % of control; the T/C under setting [8] is 107 % of control; the T/C (dose: 400.0 mg/kg/injection, schedule: Q01DX009 (ip), vehicle: saline) was 97 % of control.
For the compound `C/C1=C/C2=CC(C)C[C@@H]2C(=O)[C@]2(C)C(=O)CC(C)(C)[C@H]2CC1=O` (stereo partly specified), the T/C reads like this: (dose: 0.13 mg/kg/injection, schedule: Q01DX009 (ip), vehicle: Klucel (hydroxypropylcellulose) (HPC)) 102 % of control; (dose: 0.25 mg/kg/injection, schedule: Q01DX009 (ip), vehicle: Klucel (hydroxypropylcellulose) (HPC)) 96 % of control; (dose: 0.5 mg/kg/injection, schedule: Q01DX009 (ip), vehicle: Klucel (hydroxypropylcellulose) (HPC)) 96 % of control; (dose: 1.0 mg/kg/injection, schedule: Q01DX009 (ip), vehicle: Klucel (hydroxypropylcellulose) (HPC)) 91 % of control.
Regarding `Nc1ncc(CNc2ccc(C(=O)NC(CCC(=O)O)C(=O)O)cc2)c(N)n1` (stereo unspecified), the T/C was 107 % of control under setting [4]; 103 % of control under setting [1]; 111 % of control under setting [2]; 114 % of control under setting [3]; 108 % of control under setting [5].
For the compound `COc1cc2c(cc1OC)C1CCN3C(=O)CCC3N1CC2` (stereo unspecified), the T/C under setting [9] was 94 % of control, the T/C under setting [10] was 91 % of control and the T/C under setting [11] is 105 % of control.
As for `CCC[CH2][Hg][O]C(C)=O`, the T/C runs as follows: (dose: 0.63 mg/kg/injection, schedule: Q01DX009 (ip), vehicle: other) 99 % of control; (dose: 1.25 mg/kg/injection, schedule: Q01DX009 (ip), vehicle: other) 89 % of control; (dose: 2.5 mg/kg/injection, schedule: Q01DX009 (ip), vehicle: other) 86 % of control.
Regarding `N#CNN=Nc1cc(Cl)c(Cl)c(Cl)c1`, the T/C is 120 % of control under setting [12] and 111 % of control under setting [13].
`Nc1ccn(C2OC(COC(=O)C34CC5CC(CC(C5)C3)C4)C(O)C2O)c(=O)n1` (stereo unspecified): the T/C is, setting by setting: (dose: 6.25 mg/kg/injection, schedule: Q01DX009 (ip), vehicle: saline with Tween-80) 115 % of control; under setting [14], 153 % of control; under setting [15], 155 % of control and 191 % of control.
For the compound `FC(F)(F)c1ccc2c(c1)N(CCCN1CCN(CCN3CCOCC3)CC1)c1ccccc1S2`, the T/C (dose: 0.37 mg/kg/injection, schedule: Q01DX009 (ip), vehicle: saline) was 97 % of control; the T/C (dose: 0.75 mg/kg/injection, schedule: Q01DX009 (ip), vehicle: saline) was 87 % of control; the T/C (dose: 1.5 mg/kg/injection, schedule: Q01DX009 (ip), vehicle: saline) is 115 % of control; the T/C (dose: 3.0 mg/kg/injection, schedule: Q01DX009 (ip), vehicle: saline) was 112 % of control.
`O=C(COc1cc(Cl)c(Cl)cc1Cl)OCCOc1cc(Cl)c(Cl)cc1Cl`: the T/C is 98 % of control (dose: 12.0 mg/kg/injection, schedule: Q01DX009 (ip), vehicle: Klucel (hydroxypropylcellulose) (HPC)); 98 % of control (dose: 24.0 mg/kg/injection, schedule: Q01DX009 (ip), vehicle: Klucel (hydroxypropylcellulose) (HPC)); 91 % of control (dose: 48.0 mg/kg/injection, schedule: Q01DX009 (ip), vehicle: Klucel (hydroxypropylcellulose) (HPC)); 93 % of control (dose: 96.0 mg/kg/injection, schedule: Q01DX009 (ip), vehicle: Klucel (hydroxypropylcellulose) (HPC)).
In the case of `CC1CCC2N(C1)CC1C(C(O)C(O)C3(O)C1CC14OC5(O)C(O)CCC1(C)C5CC(O)C34)C2(C)O` (stereo unspecified), the T/C is 100 % of control (dose: 16.25 mg/kg/injection, schedule: Q01DX009 (ip), vehicle: saline); 102 % of control (dose: 37.5 mg/kg/injection, schedule: Q01DX009 (ip), vehicle: saline); 100 % of control (dose: 65.0 mg/kg/injection, schedule: Q01DX009 (ip), vehicle: saline); 104 % of control (dose: 130.0 mg/kg/injection, schedule: Q01DX009 (ip), vehicle: saline).
Turning to `C[n+]1cccc(NC(=O)c2ccc(NC(=O)C34CCC(C(=O)Nc5ccc(C(=O)Nc6ccc[n+](C)c6)cc5)(CC3)CC4)cc2)c1`, where the note is “dose: 10.0 mg/kg/injection, schedule: Q01DX009 (ip), vehicle: saline with Tween-80”, the T/C is 154 % of control.
Consider `CC1(C)c2ccccc2C(C)(C(Cl)(Cl)Cl)c2ccc(Cl)cc21` (stereo unspecified), for which the T/C is 97 % of control under setting [16], 103 % of control under setting [9], 91 % of control under setting [10] and 93 % of control under setting [11].
As for `COC(=O)/C(C#N)=N/O`, the T/C (dose: 9.37 mg/kg/injection, schedule: Q04DX003 (ip), vehicle: saline with Tween-80) is 95 % of control; the T/C (dose: 18.75 mg/kg/injection, schedule: Q04DX003 (ip), vehicle: saline with Tween-80) was 110 % of control; the T/C (dose: 37.5 mg/kg/injection, schedule: Q04DX003 (ip), vehicle: saline with Tween-80) is 100 % of control; the T/C under setting [6] was 107 % of control; the T/C (dose: 75.0 mg/kg/injection, schedule: Q04DX003 (ip), vehicle: saline) was 91 % of control; the T/C under setting [7] is 92 % of control.
Consider `COc1ccccc1NC(=O)Nc1cc(C)cc(C)n1`, for which the T/C is 94 % of control under setting [9], 94 % of control under setting [10] and 89 % of control under setting [11].
As for `O=C(CCCN1CCC(O)(c2ccc(Cl)cc2)CC1)c1ccc(F)cc1`, the T/C was 99 % of control (dose: 3.12 mg/kg/injection, schedule: Q01DX009 (ip), vehicle: saline); 114 % of control (dose: 6.25 mg/kg/injection, schedule: Q01DX009 (ip), vehicle: saline); 102 % of control under setting [12]; 99 % of control under setting [6].
`CC[N+](CC)(CC)CC.N#C/C([SH2+])=C(/[SH2+])C#N.N#C/C([SH2+])=C(/[SH2+])C#N.[Cu+2]`: the T/C reads like this: (dose: 12.5 mg/kg/injection, schedule: Q04DX003 (ip), vehicle: Klucel (hydroxypropylcellulose) (HPC)) 92 % of control; (dose: 25.0 mg/kg/injection, schedule: Q04DX003 (ip), vehicle: Klucel (hydroxypropylcellulose) (HPC)) 89 % of control.
Regarding `CCOC(=O)CC(SP(=S)(OC)OC)C(=O)OCC` (stereo unspecified), the T/C under setting [15] was 94 % of control and 107 % of control; the T/C under setting [13] was 106 % of control; the T/C under setting [16] was 96 % of control and 97 % of control; the T/C under setting [6] was 95 % of control; the T/C under setting [9] is 91 % of control and 98 % of control; the T/C under setting [7] was 101 % of control. Also, the T/C is, setting by setting: under setting [10], 88 % of control and 96 % of control; under setting [8], 101 % of control.
For `Cc1nc2[nH]c(=O)[nH]c(=O)c2[nH]1`, the T/C reads like this: under setting [14], 111 % of control; (dose: 12.5 mg/kg/injection, schedule: Q04DX003 (ip), vehicle: saline with Tween-80) 105 % of control; under setting [15], 100 % of control; (dose: 25.0 mg/kg/injection, schedule: Q04DX003 (ip), vehicle: saline with Tween-80) 108 % of control; under setting [16], 102 % of control; (dose: 50.0 mg/kg/injection, schedule: Q04DX003 (ip), vehicle: saline with Tween-80) 105 % of control.
